{"source": "patent US5608095A", "about": "“Alkyl-4-silyl-phenols and esters thereof as antiatherosclerotic agents” (Hoechst Marion Roussel, Inc., priority 1996, dated 1997)", "key": {"[1]": {"experiment": "Clinical chemistries in serum of rats", "assay_type": "in vivo, male Sprague-Dawley rats", "settings": "for response vs control in vivo at 0.3 %: Rattus norvegicus, po, 96 h; for ALP (alkaline phosphatase), percent of control / ALT (alanine aminotransferase), percent of control / AST (aspartate aminotransferase), percent of control / GLUC (glucose), percent of control: rat serum, diet 0.3%, 4 days", "from_the_text": "(§1) A typical experiment consisted of 4-6 groups of rats (N=5 per group) with 1 group being a control which received no MDL compound and the other groups being treated with 0.3% MDL compound. Some of the compounds were either repeated at 0.3% or evaluated again at the lower dose of 0.1%. Male Sprague-Dawley rats, 50-100 g, (Harlan Laboratories, Indianapolis, Ind.) were housed in groups of 5, fed ad libitum water and Purina Rodent chow (#5002) with or without MDL compound as a dietary admixture for 4 days. Dietary admixtures (0.3%) were made by mixing 1.2 grams of an MDL compound with 400 grams of Purina rodent chow (#5002). The MDL compound was mixed with approximately 50 grams of food using a mortar and pestle. This was added to the remainder of the food and mixed for 3 hours on a rotary mixer. In the morning of day 5, non-fasted rats were anesthetized with carbon dioxide, and blood was collected by cardiac puncture. Rats were sacrificed by cervical dislocation. Body weights and liver weights were recorded in grams. Food consumption was recorded as grams.cndot.day^-1.cndot.rat^-1. Deaths were recorded as mortality. Aliquots of fresh serum were used for clinical chemistries, thiobarbituric acid reactive substances (TBARS) and conjugated diene measurements. Aliquots of serum (~0.5mL) and whole livers were frozen at -20° C. for compound and metabolite concentration determination at a later time.\nBlood was allowed to clot at room temperature for 30 minutes. Serum was obtained after centrifugation for 10 min at 4° C. at 3000 rpm in a Beckman J-6M/E centrifuge with a JS-4.2 rotor. Fresh serum was analyzed by a COBAS MIRA S autoanalyzer (Roche Diagnostics) using Roche diagnostic reagents for the following clinical chemistry measurements: alkaline phosphatase (ALP, kit #44553), alanine transaminase (ALT, kit #42375), aspartate aminotransferase (AST, kit #42381), total cholesterol (CHOL, kit #44334), triglyceride (TG, kit #44120), and glucose (GLU, kit #44558). ALP, ALT, and AST were calculated as units/L. Cholesterol, triglycerides, and glucose were calculated as mg/dL."}, "[2]": {"test_system": "oxidation of serum lipids", "experiment": "TBARS assay, rat serum", "assay_type": "in vivo, male Sprague-Dawley rats", "settings": "Rattus norvegicus, po, 96 h, read-out: TBARS, percent of control", "from_the_text": "as §1\nIn this assay the oxidation of serum lipids is initiated with CuSO4, resulting in the formation of aldehydes, such as malondialdehyde (MDA). Upon incubation with thiobarbituric acid, the absorbance of the aldehydes can be detected at 530-540 nm. As stated in the previous example, TBARS values which are lower than control serum values indicate the relative ability of a test compound to inhibit the oxidation of lipids in a sample. TBARS were measured as follows: 100 μL of serum were mixed with 400 μL of a 5 mmol CuSO4 solution and incubated at 37° C. for 3 hr. The reactions were stopped by addition of 1.0 mL of 20% trichloroacetic acid. Then 1.0 mL of 0.67% thiobarbituric acid in 0.05N sodium hydroxide was added, mixed, and the samples incubated for 30 min at 90° C. Samples were centrifuged briefly to pellet undissolved material, and the supernatants were transferred to a 96-well microtiter plate. Absorbances were measured at 540 nm using a Biotek model EL311 microplate reader. The nmoles of MDA produced were calculated from a standard curve of 0 to 10 nmoles of MDA prepared from malonaldehyde bis(dimethylacetal). Serum samples from treated rats were compared to serum samples from control rats that received no MDL compound."}, "[3]": {"test_system": "oxidation of lipids", "experiment": "Conjugated diene determination, rat serum", "assay_type": "in vivo, male Sprague-Dawley rats", "settings": "pooled rat serum, diet 0.3%, 4 days, mean of 2 determinations", "from_the_text": "as §1\nConjugated diene lag phase is another indicator of the oxidation of lipids. Lipids exposed to Cu^++ form conjugated dienes that absorb ultraviolet light in the range of 230 to 235 nm. The lag phase of diene formation gives an indication of the amount of oxidation of the lipids. A lag phase longer than control samples indicate inhibition of the oxidation. Conjugated diene lay phase was determined using a Varian DMS200 spectrophotometer (fitted with a constant temperature, 5 cuvette sample changer) at 30° C. Twenty (20) μL of pooled serum were added to cuvettes containing 3.0 mL phosphate buffered saline, pH 7.5, and mixed. The absorbances of all cuvettes were measured, and the instrument baseline was set to zero using the lowest absorbing sample. Next, 100 μL of 1 mmol CuSO4 were added and immediately mixed. The absorbance of each cuvette was recorded at 2 min intervals for a period of 840 min. The data were captured and transferred to a Microsoft EXCEL® spreadsheet where the curves were smoothed and differentials obtained. Lag times were determined mathematically as minutes. Serum samples were pooled (N=5); data presented are the mean values of 2 determinations. Serum samples from treated rats were compared to serum samples from control rats that received no MDL compound."}, "[4]": {"experiment": "Animal parameters (food, body weight, liver weight, mortality) in rats", "assay_type": "in vivo, male Sprague-Dawley rats", "settings": "diet 0.3%, 4 days; for mortality at 96 h: in vivo, po, read-out: mortality (deaths per group); for mortality at 96 h / body wt., percent of control / lw/bw (liver weight/body weight), percent of control: rat", "from_the_text": "as §1"}, "[5]": {"experiment": "HPLC quantitation of compound and metabolite concentration in rat serum and liver", "assay_type": "in vivo, male Sprague-Dawley rats", "settings": "diet 0.3%, 4 days; for Liver Parent = parent compound concentration: rat liver; for Serum Parent = parent compound concentration: rat serum", "from_the_text": "as §1\nSerum and liver concentrations of parent compound and the metabolites, bisphenol and diphenoquinone, were determined by reverse phase HPLC using a Waters 990 Powerline system. Livers (1 gram samples) were homogenized with 5.0 mL PBS, pH 7.4, using a Polytron tissue homogenizer at setting 5 for 20-30 seconds. Serum or liver homogenates were extracted as follows: 100μL of either serum or homogenate were added to 2.0 mL diethyl ether:ethanol (3:1) while vortexing the tube. The sample tubes were capped and centrifuged for 10 min at 5° C. at 3500 rpm in a Beckman GPKR centrifuge with a GH 3.7 rotor. The supernatants were transferred to clean tubes and dried under N2. Samples were reconstituted with 200 μL of acetonitrile:hexane:0.1M ammonium acetate (90:6.5:3.5, by vol.). Then, 100 μL were injected onto a Waters Deltapak C18-300 Å column, and eluted with an 83% acetonitrile:17% water mobile phase at a flow rate of 1.5 mL/min. Absorbances at the wavelengths of 240, 254, and 420 nm were recorded. Compound concentrations were calculated from known quantities of authentic parent compounds after correction for recovery; the range of recovery from spiked samples was 40 to 100%. The lowest detectable limit for this class of compounds was ~0.5 μg/mL. […]. Concentrations were calculated as μg/mL of serum and μg/g of liver."}, "[6]": {"test_system": "VCAM-1", "settings": "vascular endothelial cells; cited from earlier work"}, "[7]": {"settings": "read-out: CHOL (total cholesterol), percent of control"}, "[8]": {"settings": "read-out: TRIG (triglycerides), percent of control"}}, "note": "Where two headings read alike, the source gives them in different places."}
{"compound": "CC(=O)Oc1c(C)cc(OC[Si](C)(C)c2ccccc2)c(C)c1C", "note": "[MDL 103,157, 2,3,6-Trimethyl-4-[(dimethylphenylsilyl)methyloxy]phenol acetic acid ester]", "values": [{"measurement": "response vs control in vivo at 0.3 %", "setting": "[1]; [7]", "value": 112, "unit": "%"}, {"measurement": "response vs control in vivo at 0.3 %", "setting": "[1]; [8]", "value": 82, "unit": "%"}, {"measurement": "ALP (alkaline phosphatase), percent of control", "setting": "[1]", "value": 144, "unit": "%"}, {"measurement": "ALT (alanine aminotransferase), percent of control", "setting": "[1]", "value": 133, "unit": "%"}, {"measurement": "AST (aspartate aminotransferase), percent of control", "setting": "[1]", "value": 92, "unit": "%"}, {"measurement": "GLUC (glucose), percent of control", "setting": "[1]", "value": 100, "unit": "%"}, {"measurement": "response vs control in vivo at 0.3 %", "setting": "[2]", "value": 94, "unit": "%"}, {"measurement": "CONJ. DIENE (conjugated diene lag phase)", "setting": "[3]", "value": 50, "unit": "min"}, {"measurement": "food (grams eaten per day per rat), percent of control", "setting": "[4]", "value": 96, "unit": "%"}, {"measurement": "mortality at 96 h", "setting": "[4]", "value": 0, "unit": "%"}, {"measurement": "body wt., percent of control", "setting": "[4]", "value": 96, "unit": "%"}, {"measurement": "lw/bw (liver weight/body weight), percent of control", "setting": "[4]", "value": 120, "unit": "%"}, {"measurement": "Liver Parent = parent compound concentration", "setting": "[5]", "value": 0, "unit": "µg/g"}, {"measurement": "Serum Parent = parent compound concentration", "setting": "[5]", "value": 0, "unit": "µg/mL"}]}
{"compound": "CC(C)(C)c1cc(OC[Si](C)(C)c2ccccc2)ccc1OC(=O)CCC(=O)O", "note": "[MDL 104,399, 2-t-Butyl-4-[(dimethylphenylsilyl)methyloxy]phenol succinic acid ester]", "values": [{"measurement": "response vs control in vivo at 0.3 %", "setting": "[1]; [7]", "value": 130, "unit": "%"}, {"measurement": "response vs control in vivo at 0.3 %", "setting": "[1]; [8]", "value": 168, "unit": "%"}, {"measurement": "ALP (alkaline phosphatase), percent of control", "setting": "[1]", "value": 91, "unit": "%"}, {"measurement": "ALT (alanine aminotransferase), percent of control", "setting": "[1]", "value": 107, "unit": "%"}, {"measurement": "AST (aspartate aminotransferase), percent of control", "setting": "[1]", "value": 102, "unit": "%"}, {"measurement": "GLUC (glucose), percent of control", "setting": "[1]", "value": 88, "unit": "%"}, {"measurement": "response vs control in vivo at 0.3 %", "setting": "[2]", "value": 41, "unit": "%"}, {"measurement": "CONJ. DIENE (conjugated diene lag phase)", "setting": "[3]", "value": 395, "unit": "min"}, {"measurement": "food (grams eaten per day per rat), percent of control", "setting": "[4]", "value": 90, "unit": "%"}, {"measurement": "mortality at 96 h", "setting": "[4]", "value": 0, "unit": "%"}, {"measurement": "body wt., percent of control", "setting": "[4]", "value": 101, "unit": "%"}, {"measurement": "lw/bw (liver weight/body weight), percent of control", "setting": "[4]", "value": 118, "unit": "%"}, {"measurement": "Liver Parent = parent compound concentration", "setting": "[5]", "value": 0, "unit": "µg/g"}, {"measurement": "Serum Parent = parent compound concentration", "setting": "[5]", "value": 0, "unit": "µg/mL"}]}
{"compound": "CC(=O)Oc1cc(C(C)(C)C)c(OC[Si](C)(C)c2ccccc2)cc1C(C)(C)C", "note": "[MDL 106,290, 2,5-Di-t-butyl-4-[(dimethylphenylsilyl)methyloxy]phenol acetic acid ester]", "values": [{"measurement": "response vs control in vivo at 0.3 %", "setting": "[1]; [7]", "value": 153, "unit": "%"}, {"measurement": "response vs control in vivo at 0.3 %", "setting": "[1]; [8]", "value": 75, "unit": "%"}, {"measurement": "ALP (alkaline phosphatase), percent of control", "setting": "[1]", "value": 118, "unit": "%"}, {"measurement": "ALT (alanine aminotransferase), percent of control", "setting": "[1]", "value": 89, "unit": "%"}, {"measurement": "AST (aspartate aminotransferase), percent of control", "setting": "[1]", "value": 84, "unit": "%"}, {"measurement": "GLUC (glucose), percent of control", "setting": "[1]", "value": 109, "unit": "%"}, {"measurement": "response vs control in vivo at 0.3 %", "setting": "[2]", "value": 17, "unit": "%"}, {"measurement": "CONJ. DIENE (conjugated diene lag phase)", "setting": "[3]", "value": 372, "unit": "min"}, {"measurement": "food (grams eaten per day per rat), percent of control", "setting": "[4]", "value": 108, "unit": "%"}, {"measurement": "mortality at 96 h", "setting": "[4]", "value": 0, "unit": "%"}, {"measurement": "body wt., percent of control", "setting": "[4]", "value": 95, "unit": "%"}, {"measurement": "lw/bw (liver weight/body weight), percent of control", "setting": "[4]", "value": 104, "unit": "%"}]}
{"compound": "CC(=O)N[C@@H](CS)C(=O)O", "note": "[N-acetylcysteine]", "values": [{"measurement": "inhibition of cytokine-induced expression of VCAM-1", "setting": "[6]", "value": "inhibit cytokine-induced expression of VCAM-1"}]}
{"compound": "S=C(S)N1CCCC1", "note": "[pyrollidine dithiocarbamate]", "values": [{"measurement": "inhibition of cytokine-induced expression of VCAM-1", "setting": "[6]", "value": "inhibit cytokine-induced expression of VCAM-1"}]}
